The text below walks through data of patent EP2048133A1 (Pharmeste S.r.l., priority 2007, dated 2009).

In brackets after ≈: the same amount, converted by molar mass. Like-named read-outs stand apart in the source and are kept apart here. A value given as a limit tells only on which side of the number the result lay.

The target in series [1] is T1, TRPV1 expressed in rat spinal cord (Rattus norvegicus, UniProt O35433).
T1 construct: the spinal cord was removed and disrupted using a Polytron tissue homogenizer; from tissue; host or cells: rat spinal cord membranes
T1 sequence (O35433 whole entry): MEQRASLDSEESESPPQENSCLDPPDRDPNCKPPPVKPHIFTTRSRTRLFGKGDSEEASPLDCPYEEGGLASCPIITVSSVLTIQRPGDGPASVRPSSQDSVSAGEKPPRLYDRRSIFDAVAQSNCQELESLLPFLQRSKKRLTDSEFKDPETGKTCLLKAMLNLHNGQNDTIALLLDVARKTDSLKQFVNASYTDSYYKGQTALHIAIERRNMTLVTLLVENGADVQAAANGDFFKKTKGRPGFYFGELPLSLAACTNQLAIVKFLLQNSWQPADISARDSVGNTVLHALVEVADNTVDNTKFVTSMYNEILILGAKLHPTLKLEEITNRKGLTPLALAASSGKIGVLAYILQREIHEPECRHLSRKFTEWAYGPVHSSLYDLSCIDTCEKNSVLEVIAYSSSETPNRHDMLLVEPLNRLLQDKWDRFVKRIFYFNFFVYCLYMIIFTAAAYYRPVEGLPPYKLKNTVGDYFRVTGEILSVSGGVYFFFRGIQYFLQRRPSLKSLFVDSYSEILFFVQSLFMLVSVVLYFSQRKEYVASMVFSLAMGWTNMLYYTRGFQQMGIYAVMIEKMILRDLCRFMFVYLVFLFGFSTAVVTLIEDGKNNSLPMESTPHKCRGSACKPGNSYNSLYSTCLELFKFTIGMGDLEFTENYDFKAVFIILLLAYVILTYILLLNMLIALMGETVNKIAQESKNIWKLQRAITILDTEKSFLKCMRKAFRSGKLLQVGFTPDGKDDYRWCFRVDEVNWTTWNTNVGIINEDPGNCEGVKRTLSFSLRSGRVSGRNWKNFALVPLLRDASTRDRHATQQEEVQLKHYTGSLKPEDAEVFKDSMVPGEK
Nature of the series: Radioligand binding assay ([3H]-RTX, spinal cord membranes). The protocol: Male Sprague-Dawley rats with body weight between 250 to 350 g at the time for testing were used. For binding assays rats were sacrificed by decapitation under anesthesia and the spinal cord was removed and disrupted using a Polytron tissue homogenizer in ice cold buffer containing 5 mM KCl, 5.8 mM NaCl, 0.75 mM CaCl2, 2 mM MgCl2, 320 mM sucrose, 10 mM Hepes, pH 8.6.^5 The homogenized tissue was centrifuged at 1000 x g for 10 min at 4°C and the supernatant was centrifuged again at 35000 x g for 30 min at 4°C (Beckman Avanti J25). The pellet was resuspended in the same buffer as described above and used in binding experiments. In saturation experiments, 150 µg protein/sample from membrane suspensions were incubated with [^3H]-Resiniferatoxin ([^3H]-RTX) (0.003-3 nM) in the assay buffer containing 0.25 mg/ml fatty acid-free bovine serum albumin at 37°C for 60 min. In competition experiments, the membranes were incubated at 37°C for 60 min with [^3H]RTX (0.4 nM) and with increasing concentrations (from 0.1 nM to 3 µM) of examined compounds.
Non specific binding was evaluated in the presence of 1 µM RTX. After incubation the reaction mixture was cooled at 0°C and incubated with bovine α1-acid glycoprotein (200 µg per tube) for 15 min to reduce non-specific RTX binding. Membrane-bound RTX was separated from free RTX by centrifuging the samples at 18500 x g for 15 min. The tip of the microcentrifuge tube containing the pellet was cut off and the radioactivity was determined by scintillation counting (Packard 2500 TR). Protein concentration was determined according to a Bio-Rad method with bovine serum albumin as a standard reference (Bradford, 1976). Saturation and competition studies were analyzed with the Ligand program.

The target of a further series is CYP2C9 (Homo sapiens, UniProt P11712). Nature of the series: Fluorometric cytochrome P450 inhibition assay. Particulars: tested from 0.1 µM to 10 µM, 37°C, read-out: Cytochrome P450 subtypes µM inhibition (estimated IC50) CYP2C9. The series is classed as in vitro ADME. The protocol:
(§1) A microtiter plate-based, direct, fluorometric assay was performed to analyze V405 inhibition potential of activities catalyzed by six of the major human liver cytochromes P450 (CYP) enzymes: CYP1A2, CYP2C9, CYP2C19, CYP2D6, CYP2E1 and CYP3A4. The six cytochrome P450 subtypes inhibition was tested from 0.1 µM to10 µM.
(§2) Four dilution points were evaluated (10 µM, 2.15 µM, 0.46 µM and 0.1 µM). A lid was placed on the plate and plate was placed at 37°C in a plate incubator for at least 10 minutes (to pre-warm the buffer and the plate). The reaction started when 0.1 mL enzyme/substrate solution mix was added to test wells. The plate was mixed and the reaction was continued incubating the lid-covered plate at 37°C for the desired time.
(§3) A stop solution was then added to all wells. and an enzyme/substrate mix was dispensed to the inverted blank wells (negative controls).
(§4) >The IC50 was calculated with a typical logistic curve fitting : % Inib = (Min-Max)/(1 + ((Conc)/(IC50)())^p) + Max [formula]

Another series concerns the target CYP2C19 (Homo sapiens, UniProt P33261). Nature of the series: Fluorometric cytochrome P450 inhibition assay. Type of series: in vitro ADME. Particulars: tested from 0.1 µM to 10 µM, 37°C, read-out: Cytochrome P450 subtypes µM inhibition (estimated IC50) CYP2C19. The method, then: as §1, §2, §3, §4
The next series has as its target T2, CYP1A2 (Homo sapiens, UniProt P05177).
T2 sequence (P05177 1-516): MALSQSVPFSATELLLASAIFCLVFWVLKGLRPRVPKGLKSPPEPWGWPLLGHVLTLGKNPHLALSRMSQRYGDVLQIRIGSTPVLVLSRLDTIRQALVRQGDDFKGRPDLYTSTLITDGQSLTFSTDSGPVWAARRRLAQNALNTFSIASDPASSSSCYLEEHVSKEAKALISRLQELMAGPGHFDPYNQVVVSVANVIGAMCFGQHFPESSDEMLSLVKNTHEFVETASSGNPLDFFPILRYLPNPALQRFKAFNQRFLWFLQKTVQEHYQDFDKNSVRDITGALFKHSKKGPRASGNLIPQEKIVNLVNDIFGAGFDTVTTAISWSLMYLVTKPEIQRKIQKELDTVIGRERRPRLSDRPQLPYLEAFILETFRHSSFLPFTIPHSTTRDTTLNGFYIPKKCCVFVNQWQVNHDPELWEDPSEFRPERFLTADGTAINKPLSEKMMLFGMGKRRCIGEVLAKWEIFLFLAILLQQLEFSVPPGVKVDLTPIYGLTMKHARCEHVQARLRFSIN
Nature of the series: Fluorometric cytochrome P450 inhibition assay. Type of series: in vitro ADME. Particulars: tested from 0.1 µM to 10 µM, 37°C, read-out: Cytochrome P450 subtypes µM inhibition (estimated IC50) CYP1A2. The method, then: as §1, §2, §3, §4

In a further series the target is CYP2E1 (Homo sapiens, UniProt P05181). Nature of the series: Fluorometric cytochrome P450 inhibition assay. Particulars: tested from 0.1 µM to 10 µM, 37°C, read-out: Cytochrome P450 subtypes µM inhibition (estimated IC50) CYP2E1. Type of series: in vitro ADME. The method, then: as §1, §2, §3, §4
Chain of CYP2E1 (P05181 whole entry): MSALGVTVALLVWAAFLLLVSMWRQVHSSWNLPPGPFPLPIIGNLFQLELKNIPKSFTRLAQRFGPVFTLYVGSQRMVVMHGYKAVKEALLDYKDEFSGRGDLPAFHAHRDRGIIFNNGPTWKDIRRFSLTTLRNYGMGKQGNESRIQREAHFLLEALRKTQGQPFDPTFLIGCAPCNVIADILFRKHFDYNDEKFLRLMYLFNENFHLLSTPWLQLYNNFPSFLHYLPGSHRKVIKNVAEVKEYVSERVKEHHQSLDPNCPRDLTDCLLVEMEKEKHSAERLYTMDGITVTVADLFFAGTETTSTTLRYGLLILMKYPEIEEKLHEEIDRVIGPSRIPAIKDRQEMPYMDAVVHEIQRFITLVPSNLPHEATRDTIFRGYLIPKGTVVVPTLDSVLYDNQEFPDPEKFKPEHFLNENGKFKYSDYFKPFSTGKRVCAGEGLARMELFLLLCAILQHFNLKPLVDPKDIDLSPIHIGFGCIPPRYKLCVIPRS
In another series the target is CYP3A4 (Homo sapiens, UniProt P08684). Nature of the series: Fluorometric cytochrome P450 inhibition assay. The series is classed as in vitro ADME. Particulars: tested from 0.1 µM to 10 µM, 37°C, read-out: Cytochrome P450 subtypes µM inhibition (estimated IC50) CYP3A4. The method, then: as §1, §2, §3, §4
Chain of CYP3A4 (P08684 whole entry): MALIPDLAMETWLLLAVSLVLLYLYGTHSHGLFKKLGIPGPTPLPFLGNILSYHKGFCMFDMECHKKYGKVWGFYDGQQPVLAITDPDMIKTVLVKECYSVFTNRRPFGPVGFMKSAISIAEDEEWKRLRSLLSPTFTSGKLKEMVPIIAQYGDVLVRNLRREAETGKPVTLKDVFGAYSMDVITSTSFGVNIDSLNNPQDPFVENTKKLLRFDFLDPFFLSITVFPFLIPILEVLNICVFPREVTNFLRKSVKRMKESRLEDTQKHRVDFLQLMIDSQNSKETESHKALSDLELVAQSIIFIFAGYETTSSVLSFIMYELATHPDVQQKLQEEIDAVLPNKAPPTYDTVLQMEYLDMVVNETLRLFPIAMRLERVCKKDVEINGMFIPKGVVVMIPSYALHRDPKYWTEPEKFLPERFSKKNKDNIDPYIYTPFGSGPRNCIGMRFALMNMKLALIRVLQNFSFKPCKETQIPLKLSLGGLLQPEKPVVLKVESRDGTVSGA
A further series has as its target CYP2D6 (Homo sapiens, UniProt P10635). Nature of the series: Fluorometric cytochrome P450 inhibition assay. Type of series: in vitro ADME. Particulars: tested from 0.1 µM to 10 µM, 37°C, read-out: Cytochrome P450 subtypes µM inhibition (estimated IC50) CYP2D6. The method, then:
as §1, §2, §3, §4

A short description of series [2]: Thermodynamic solubility in PBS. The series is classed as physicochemical. Particulars: phosphate buffer pH 7.4, room temperature, stirring 36h, HPLC. The method, then: The standard solution was prepared by dissolving 1.4 mg of V405 in 10 mL of acetonitrile. A saturated solution of V405 was prepared by stirring 10 mL of phosphate buffer pH 7.4 in the presence of 10 mg of compound. The stirring was conducted at room temperature for 36h. The supernatant was filtered through a Millipore […] filter and 10 µL were used as sample for the HPLC determination. (Eluents: A = Water with 0.1% TFA, B = Acetonitrile + 0.1% TFA, Gradient: 0-100% B in 25 min, Column: SYMMETRY 300 C18 5 µM; 4,6 X 150 MM, […]). The solubility was determined by the following relationship: C'= percent area' C/percent area where C= concentration of standard solution (mg/ml), percent area': area of the peak of standard solution, percent area: area of the peak of saturated solution, C'= concentration of the saturated solution. The solubility was then expressed as […].

The target of another series is T3, TRPV1 expressing neurons (Rattus norvegicus, UniProt O35433).
T3 construct: Adult rats were terminally anaesthetized and decapitated; Dorsal root ganglia were removed; endogenous in cells; host or cells: primary cultured adult rat dorsal root ganglia neurons
T3 sequence (O35433 whole entry): as the sequence (O35433 whole entry) above
Nature of the series: Ca2+ fluorescence measurements in cultured dorsal root ganglia neurones. Type of series: cell-based. The method, then:
Adult rats were terminally anaesthetized and decapitated. […] The ganglia, placed in cold DMEM supplemented with 10% fetal bovine serum, 2 mM L-glutamine, 100 U/ml penicillin and 100 µg/ml streptomycin, were dissociated in single cells by several passages through a series of syringe needles (23G down to 25G). The medium and the ganglia were filtered to remove debris, topped up with 8 ml of DMEM medium and centrifuged (200 x g for 5 min). […] The cells were then washed twice with the Ca^2+ buffer solution and transferred to a chamber on the stage of a Nikon eclipse TE300 microscope. […] A calibration curve was set up using buffer containing Fura-2-AM-ester and determinant concentrations of free Ca^2+. This curve was then used to convert the data obtained from the F340/F380 ratio to [Ca^2+]¡ (nM).

Series [3] can be described thus: Body temperature measurements. The series is classed as in vivo, rat. Particulars: 30 µmol/kg orally; for body temperature change: monitored for more than 3 hours. The protocol:
Rats were placed in individual cages at room temperature (22-25°C). Rectal temperatures were recorded from awake animals by repeated insertion of a lubricated rectal thermocouple probe (model-8402-00, Cole-Palmer Instrument Company) prior to and following orally administration of V405 at 30 µmil/kg.

Series [4] relates to six of the major human liver cytochromes P450 (CYP) enzymes. Nature of the series: Cytochrome P450 inhibition, whole panel (qualitative statement). The series is classed as in vitro ADME. Particulars: panel of six CYPs, each concentration tested (0.1-10 µM). The method, then:
as §1, §2, §3, §4

Series [5] in a line: Capsaicin-induced secondary allodynia. Type of series: in vivo, rat. Particulars: 30 µmol/kg orally 2 hours prior to capsaicin (5 nmols/50 µl/paw); 30 min after capsaicin challenge. The method, then:
Capsaicin (5 nmols/50 µl/paw) was injected in the plantar surface of the glabrous skin of the right paw of rats anesthetized with diethyl ether (Chaplan et al., 1994). Compound V405 was orally administrated (30 µmol/kg) 2 hours prior to capsaicin injection. Tactile allodynia was evaluated 30 min after capsaicin challenge.

The mark [6] stands for this setting: 0.1 µM capsaicin; mean and 95% fiducial limits; read-out: IC50 of inhibition of capsaicin-evoked [Ca2+]i mobilization.

Chain of CYP2D6 (P10635 whole entry): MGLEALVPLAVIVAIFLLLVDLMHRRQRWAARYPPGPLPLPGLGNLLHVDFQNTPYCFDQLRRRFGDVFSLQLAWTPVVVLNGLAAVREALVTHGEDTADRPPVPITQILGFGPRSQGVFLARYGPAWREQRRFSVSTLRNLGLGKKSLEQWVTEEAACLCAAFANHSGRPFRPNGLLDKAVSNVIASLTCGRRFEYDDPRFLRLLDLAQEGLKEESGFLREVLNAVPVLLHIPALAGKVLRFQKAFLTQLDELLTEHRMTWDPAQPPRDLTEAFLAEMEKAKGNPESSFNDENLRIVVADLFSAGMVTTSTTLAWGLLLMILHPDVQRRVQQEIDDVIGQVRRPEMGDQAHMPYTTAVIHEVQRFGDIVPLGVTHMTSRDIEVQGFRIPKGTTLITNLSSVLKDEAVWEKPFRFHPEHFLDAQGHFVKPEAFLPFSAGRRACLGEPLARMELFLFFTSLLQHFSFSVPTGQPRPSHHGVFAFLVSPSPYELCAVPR
Chain of CYP2C9 (P11712 whole entry): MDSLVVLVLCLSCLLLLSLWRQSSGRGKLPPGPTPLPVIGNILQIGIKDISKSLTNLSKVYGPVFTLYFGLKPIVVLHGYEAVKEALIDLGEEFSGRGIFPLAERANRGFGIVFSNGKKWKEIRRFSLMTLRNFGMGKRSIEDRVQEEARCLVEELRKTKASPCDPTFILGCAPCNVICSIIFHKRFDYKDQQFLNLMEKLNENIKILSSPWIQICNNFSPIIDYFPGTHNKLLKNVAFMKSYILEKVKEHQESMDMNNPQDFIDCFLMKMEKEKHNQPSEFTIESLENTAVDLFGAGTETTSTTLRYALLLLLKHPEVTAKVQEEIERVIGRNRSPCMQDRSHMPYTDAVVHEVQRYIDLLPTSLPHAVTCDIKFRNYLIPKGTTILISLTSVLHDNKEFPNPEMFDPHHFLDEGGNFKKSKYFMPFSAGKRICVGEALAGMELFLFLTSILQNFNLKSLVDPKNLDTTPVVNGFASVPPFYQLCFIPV
Chain of CYP2C19 (P33261 whole entry): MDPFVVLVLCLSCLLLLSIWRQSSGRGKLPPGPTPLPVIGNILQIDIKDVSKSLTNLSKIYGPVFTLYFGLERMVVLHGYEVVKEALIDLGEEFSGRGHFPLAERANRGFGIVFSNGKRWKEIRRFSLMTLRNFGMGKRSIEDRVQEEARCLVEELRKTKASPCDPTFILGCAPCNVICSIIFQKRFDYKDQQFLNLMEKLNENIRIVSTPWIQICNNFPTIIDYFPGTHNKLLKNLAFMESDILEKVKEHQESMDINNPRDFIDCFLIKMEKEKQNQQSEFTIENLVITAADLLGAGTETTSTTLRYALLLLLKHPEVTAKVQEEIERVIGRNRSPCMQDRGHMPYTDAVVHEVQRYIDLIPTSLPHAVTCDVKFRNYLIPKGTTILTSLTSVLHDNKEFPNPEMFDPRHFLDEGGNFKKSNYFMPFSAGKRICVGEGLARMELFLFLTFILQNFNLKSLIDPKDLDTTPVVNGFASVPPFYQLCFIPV

Regarding `O=C(Nc1ccc(Cl)cc1)c1ccc(-c2cccc3cnccc23)[n+]([O-])c1` [Example V405], the Ki (in general, a measure of affinity in units of concentration, obtained from inhibition or displacement) in series [1] was 0.203 µM. Moreover, the IC50 on CYP2C9, at CYP2C19, at CYP1A2, on CYP2E1, at CYP3A4 and on CYP2D6 was > 10 µM each time. For the same compound, the IC50 (as a rule, the concentration needed to halve the response being measured) on TRPV1 expressing neurons (read-out: IC50 of inhibition of capsaicin-evoked [Ca2+]i mobilization; 0.1 µM capsaicin; mean and 95% fiducial limits) came to 0.015 µM. Besides, the thermodynamic solubility (commonly solubility found after equilibrating the solid with the medium) at 36 h in series [2] (2160 min) came out at 106.4 µM (≈ 40 µg/mL); in [2] (phosphate buffer, pH 7.4, aqueous buffer) it was 106 µM (≈ 39.8 µg/mL). Further, the values for the body temperature change result in series [3] and in series [3] (listed as compound 1) were “No significant temperature change” and “does not cause thermal increase”, respectively. Moreover, the “interaction with the evaluated cytochromes” value in series [4] was “does not interact”. In addition, in [5], the “preventive effect against the pro-allodinic effect of capsaicin” value stood at 55%.
For `COc1cccc(NC(=O)/C=C/c2ccc(Cl)cc2)c1` [SB-366791, (E)-3-(4-chlorophenyl)-N-(3-methoxyphenyl)acrylamide], in [1] (competition with [3H]RTX (0.4 nM), 37°C, 60 min, read-out: Ki), the Ki was 0.036 µM. For the same compound, the IC50 at TRPV1 expressing neurons (setting [6]) was found to be 0.0087 µM.
Regarding `C=C(C)[C@]12C[C@@H](C)[C@@]34O[C@](Cc5ccccc5)(O[C@@H]1[C@@H]3C=C(COC(=O)Cc1ccc(O)c(OC)c1)C[C@]1(O)C(=O)C(C)=C[C@@H]41)O2` [[^3H]-RTX, [^3H]-Resiniferatoxin], the affinity in [1] (saturation curve, [3H]-RTX 0.003-3 nM, 37°C, 60 min, mean (95% limits)), expressed as Kd, was 0.00021 µM.
On to `O=C(Nc1ccc(Cl)cc1)c1ccc(-c2cccc3cnccc23)nc1` [non-oxidized homologous, N-(4-chlorophenyl)-6-(isoquinolin-5-yl)pyridine-3-carboxamide, reference compound], for which, in series [2], the Thermodynamic solubility result is listed as “not soluble”. For the same compound, in [3] (during the whole experiment (more than 3 hours)), the “temperature increase (mean value) with respect to control animals” value is “+0.5 °C”.
Consider `Oc1cc2c(cc1O)CN(C(=S)NCCc1ccc(Cl)cc1)CCC2` [capsazepine], for which the IC50 on TRPV1 expressing neurons (setting [6]) is 0.948 µM.
